# Read-outs that look alike come from different tables or passages of the source.
# Tests used:
# [1] = caspofungin-treated patients with candidemia; cited from earlier work
# [2] = concentration independent, cited from earlier work
# Text: The relationship between antifungal in vivo susceptibility, dosages, drug concentrations within various body compartments and toxicological effects are not completely understood. […] For example, in sino-orbital aspergillosis systemic therapy may not be sufficient to penetrate the site of infection and reduce fungal burden. In addition, our work here is based upon total plasma concentra ...
# [3] = Population pharmacokinetic modeling of caspofungin plasma concentrations in healthy cats (HPLC-MS/MS, NONMEM)
# Protocol: (§1) Cats were housed individually and acclimatized to the clinical environment for three days prior to the start of the study with free access to food and water.
# (§2) For drug administration, a peripheral catheter (22G IV radiopaque catheter; OPTIVA®, Smiths Medical International Ltd, Lanchashire, UK) was placed into a cephalic vein.
# (§3) Blood samples were immediately centrifuged (12, 000 g for 5 min) and plasma was stored at -80°C until assay.
# Pharmacokinetic model development employed nonlinear mixed-effects modeling using NONMEM version 7.3 [17], with the Wings for NONMEM 7.3interface (http://wfn.sourceforge.net) and IFort compiler. […] Data manipulation and post-run processing of NONMEM output was conducted using the R data analysis language (Version 3.2.2) and the packages ggplot2, GGally, foreign, tidyr, Hmisc, gdata, doBy, plyr, grid, stringr with associated dependencies [17–28].
# The base pharmacokinetic model was developed in a step-wise manner. Pharmacokinetic models were coded using the built-in ADVAN subroutines of NONMEM. Linear kinetic models with 1 and 2 compartments were evaluated. The First Order Conditional Estimation (FOCE) method was used to fit models. The base model was selected on the basis of mechanistic plausibility, visual inspection of goodness-of-fit diagnostic plots, the precision of parameter estimates (se% <30% for fixed, <50% for random effects parameters), and the lowest value of the Akaike’s information criterion (AIC; Eq 1) in accordance with the number of parameters and the final NONMEM derived objective function value (OBJ). The base model was also required to pass the covariance step.
# Unless stated otherwise, population parameter variability (PPV) was represented using an exponential error model (Eq 2): Pj=TVP*e^ηj (2) where Pj is the individual value for the parameter in the j^th individual, TVP is the typical population value of P and ηj is an independent random variable with a mean of zero and variance ω^2. PPV was systematically examined on each fixed-effect parameter. Models with and without covariance for P were investigated using the OMEGA BLOCK functionality of NONMEM.
# The influence of the additive component of the error was also examined by a comparison with a proportional only error model.
# [4] = tested on: clinical isolates of A. felis from cats with invasive aspergillosis; conditions: cited from earlier work
# Text: Echinocandins have concentration-dependent activity against Aspergillus spp.
# [5] = parameters: Time at which steady state was achieved: dose or concentration left out as unconfirmed; conditions: cited from earlier work
# [6] = tested on: invasive pulmonary aspergillosis; conditions: cited from earlier work
# [7] = Tolerability of IV caspofungin in healthy cats (physical examination, blood count, biochemistry)
# Protocol: as §1, §2, §3
# [8] = cats, 1 mg/kg IV infusion over 1 h, two-compartment model, scaled to 4 kg
compound,measurement,setting,value
"CC[C@H](C)C[C@H](C)CCCCCCCCC(=O)N[C@H]1C[C@@H](O)[C@@H](NCCN)NC(=O)[C@@H]2[C@@H](O)CCN2C(=O)[C@H]([C@H](O)CCN)NC(=O)[C@H]([C@H](O)[C@@H](O)c2ccc(O)cc2)NC(=O)[C@@H]2C[C@@H](O)CN2C(=O)[C@H]([C@@H](C)O)NC1=O [caspofungin, caspofungin acetate]",Frequency of chills,[1],5.3%
same,Frequency of fever,[1],7.5%
same,"Frequency of liver enzyme elevations (ALT, AST or ALP)",[1],13.9%
same,Frequency of nausea or vomiting,[1],5.3%
same,Frequency of phlebitis,[1],3.5%
same,Unbound fraction in serum,[2]; human serum,3–4%
same,Unbound fraction in serum,[2]; mouse serum,3–4%
same,clearance,"[3]; both, domestic shorthair, plasma, iv, 1 mg/kg",0.292 mL/min
same,"Q (mL/h) * (WT/4)^0.75, inter-compartmental clearance, population estimate",[3]; [8],150 mL/h
same,"V1 (mL) * (WT/4), central volume of distribution, population estimate",[3]; [8],214 mL
same,"V2 (mL) * (WT/4), peripheral volume of distribution, population estimate",[3]; [8],143 mL
same,Time at which steady state was achieved,"[3]; cats, daily IV dosing",approximately 72 h
same,MEC,"[4]; clinical isolates of A. felis from cats, all except one isolate",less than 0.06 μg/mL
same,MEC,[4]; one clinical isolate of A. felis,2 µg/mL
same,Clearance in the typical 70 kg human,[5],10 mL/min
same,Trough concentration at steady state,[5]; humans given 70 mg/kg of caspofungin daily,2.57 ± 0.34 µg/mL
same,Time at which steady state was achieved,[5]; humans given of caspofungin daily,during the third week of administration
same,Fungal burden versus mice dosed with 1 mg/kg q6 h,[6]; mice dosed with 1 mg/kg q24 h or 2 mg/kg q48 h,significantly lower fungal burdens
same,Effect on fungal growth at higher doses,"[6]; mice, 4 mg/kg, Cmax: MEC >20",paradoxical effect on fungal growth resulting in increased burdens
same,Liver enzyme elevations,"[7]; healthy cats, 1 mg/kg IV daily",did not occur in any cats
same,Tolerability,"[7]; healthy cats, 1 mg/kg IV over 1 h, single and 7 daily doses",well tolerated
same,Changes on complete blood counts and multiple biochemical analyses,"[7]; healthy cats, after consecutive daily dosing 1 mg/kg IV",no changes
same,Body temperature during minor transient hyperthermia,"[7]; one cat, during the first infusion only, reference range 37.5–39.1°C",39.6–39.8 °C
same,Diarrhoea,"[7]; one cat, resolved within 24 h of the final infusion",mild transient diarrhoea

# — PMC5456383 (PLoS ONE, 2017)
